Test results published in the METLIN SMRT retention time set (Domingo-Almenara et al. 2019).

assay: gradient 5% acetonitrile 3 min, to 50% in 2 min, to 85% in 15 min, held 3 min, 100 µL/min; conditions: column: Zorbax Extend-C18 2.1 x 50 mm; eluents: water / acetonitrile, 0.1% formic acid
Summary of the method: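 Over 3 months, pure standards in mixtures of ~100 molecules were run by HPLC coupled to a quadrupole time-of-flight mass spectrometer in positive and negative ionization mode. The column was a Zorbax Extend-C18 (2.1 × 50 mm, 1.8 μm) at 100 μL/min, eluted with water and acetonitrile each holding 0.1% formic acid, with 40 μL dead and 900 μL dwell volumes. Retention time was determined from adduct peaks chosen by software and checked manually.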

| Structure (SMILES) | RP-LC retention time |
| --- | --- |
| COc1ccc(NC(=O)c2c(C)oc3nc(C)nc(N4CCOCC4)c23)c(OC)c1 | 818 s |
| CCC(C)NC(=O)Cn1nc2c3sc(N(C)C)nc3ncn2c1=O (stereo unspecified) | 1130 s |
| O=C(Nc1ccc(Cl)cc1)C(=O)c1cn(CC(=O)N2CCCC2)c2ccccc12 | 1020 s |
| CNC(=O)c1sc2nc(-c3cccc(OC)c3)c(NCCOC)n2c1C | 696 s |
| CS(=O)(=O)N1CCN(C(=O)c2ccsc2)CC1 | 606 s |
| COc1cc(OC)c(NC(=O)C2CCCN(C(=O)c3cc(C)cc(C)c3)C2)cc1Cl (stereo unspecified) | 1010 s |
| CCC(c1cccs1)N1C(=O)[C@H]2CN(S(=O)(=O)c3ccccc3Cl)C[C@H]2C1=O (stereo partly specified) | 1000 s |
| CC(C)CC(=O)Nc1ccc(-n2cnc(C(=O)NC3CCCC3)c2)nc1 | 772 s |
| COc1ccc(Cl)cc1NC(=O)C1Oc2ccccc2NC1=O (stereo unspecified) | 873 s |
| CCN1C(=O)COc2ccc(-c3csc(NC(=O)CC(C)C)n3)cc21 | 928 s |
| CC1CCN(c2cncnc2-n2cc(NC(=O)NC3CCCCC3)cn2)CC1 | 744 s |
| COC(=O)c1c(C)c(C(=O)C(C)N(C(=O)c2ccc(F)cc2)C(C)C)c(C)n1C (stereo unspecified) | 922 s |
| O=C(CN1CCC(COCc2ccccc2)CC1)Nc1ccc2c(c1)OCCO2 | 605 s |
| CC(=O)N1CCN(c2nc(C)cc(N3CCCC3)n2)CC1 | 580 s |
| Cc1ccc(CCNC(=O)c2cc3sccc3n2Cc2ccc(F)cc2)cc1 | 702 s |
| CCOc1cc(-c2nc(C3CC(=O)N(c4ccc(C)cc4)C3)no2)cc(OCC)c1OCC (stereo unspecified) | 1150 s |
| O=C(Cc1csc(SCc2ccncc2)n1)N1CCN(c2ccccc2)CC1 | 582 s |
| CN(C)S(=O)(=O)c1ccc(C(=O)NCc2ccsc2)cc1 | 730 s |
| Cn1cc(CC(=O)NCc2cccc(Cl)c2)c2cccnc21 | 725 s |
| CCSCCOC(=O)C1=C(C)NC2=C(C(=O)C(C(=O)OC)C(C)C2)C1c1ccccc1OC (stereo unspecified) | 967 s |

| Structure (SMILES) | RP-LC retention time |
| --- | --- |
| CC(C)NC(=O)N1CCCN(S(C)(=O)=O)CC1 | 598 s |
| O=C(N[C@@H]1CN(Cc2ccsc2)CC[C@@H]1CO)c1ccccc1 | 591 s |
| CCCSCCCNc1nc(-c2nnc(-c3ccccc3)o2)nc2ccccc12 | 1100 s |
| Cc1cc(N2CCCC2)n2nc(CN3CCC4(CC3)OCCO4)nc2n1 | 572 s |
| Cc1nc(C(=O)Nc2cc(F)ccc2F)c(C)o1 | 998 s |
| Cn1c(=O)c2c(nc(N3CCCCC3)n2C)n(C)c1=O | 794 s |
| Cc1ccc2nc(C3CN(C(=O)COc4ccc(Cl)cc4Cl)C3)[nH]c2c1 | 610 s |
| CC(Cc1ccccc1)(NC(=O)CN)c1ccccc1 (stereo unspecified) | 730 s |
| COc1nc2ccccc2nc1N1CCCC(C(=O)NC2CCCCCC2)C1 (stereo unspecified) | 1090 s |
| CCNC(=O)C1CCCN(c2nc3ncn(CC(=O)NC4CCCCC4)c(=O)c3s2)C1 (stereo unspecified) | 658 s |
| CCN(CC)CCNc1ncnc2onc(-c3ccc(F)cc3)c12 | 625 s |
| Cc1ccc(-c2cc(C(=O)N3CCC(NC(=O)c4cccs4)CC3)[nH]n2)c(C)c1 | 763 s |
| Cc1cc(C(=O)Nc2ccc(S(C)(=O)=O)cc2)no1 | 632 s |
| c1csc(CN2CCC(c3nc(-c4cnccn4)n[nH]3)CC2)c1 | 555 s |
| COc1cc(OC)cc(C(=O)NCC(O)Cc2ccccc2)c1 (stereo unspecified) | 706 s |
| O=C(NCCNc1cc(-n2cccn2)ncn1)c1c[nH]c2ccccc12 | 646 s |
| Cc1ccccc1-c1nn2c(CSc3ccccc3)nnc2s1 | 1030 s |
| O=C(C1CC(=O)N(c2ccc3c(c2)CCN3C(=O)C2CC2)C1)N1CCOCC1 (stereo unspecified) | 634 s |
| O=C(CSc1nnc(NC(=O)c2cccc([N+](=O)[O-])c2)s1)Nc1nccs1 | 702 s |
| CCOC(=O)N1CCN(S(=O)(=O)c2cn(C)c(=O)n(C)c2=O)CC1 | 621 s |

| Structure (SMILES) | RP-LC retention time |
| --- | --- |
| Cc1cc(NC(=O)N(C)CC2CCOCC2)ccc1Br | 819 s |
| Cc1ccc(NC(=O)N2CCC(OC3CCN(S(C)(=O)=O)CC3)CC2)cc1Cl | 867 s |
| CCC(=O)N1CCc2cc(C(=O)N(C)C)ccc21 | 673 s |
| CC(Oc1ccc(Cl)cc1)C(=O)NCC1CCOCC1 (stereo unspecified) | 782 s |
| CCCC(NC(=O)c1cc(F)cc(F)c1)C(=O)Nc1nc2ccccc2[nH]1 (stereo unspecified) | 733 s |
| CCn1nnc2cc(-c3noc(CNC(=O)Cc4ccccc4)n3)ccc21 | 767 s |
| CCC(=O)n1nc(C)c(S(=O)(=O)N2CCC(C)CC2)c1C | 1150 s |
| O=C(COc1ccccc1Br)Nc1nc(-c2ccccc2)cs1 | 1130 s |
| O=C(NCC1CCCO1)c1cnn2c(-c3ccc4c(c3)OCO4)ccnc12 (stereo unspecified) | 780 s |
| CCC(C)NC(=O)c1ccc2ncnc(N3CCCCC3)c2c1 (stereo unspecified) | 618 s |
| O=C(Cn1cnc2nc3c(cc2c1=O)CCCC3)N1CCN(C(=O)c2ccco2)CC1 | 622 s |
| CCN1C(=O)c2cccnc2Sc2cc(CNC(=O)Cc3ccsc3)ccc21 | 728 s |
| COc1ccccc1N1CCN(C(=O)C2CCN(C(=O)C3Sc4ccccc4NC3=O)CC2)CC1 (stereo unspecified) | 717 s |
| Cc1cc2nnc(SCC(=O)c3cc(C)n(CC4CCCO4)c3C)n2c2ccccc12 (stereo unspecified) | 784 s |
| COc1ccc(CCNC(=O)CSc2c[nH]c3ccccc23)cc1OC | 717 s |
| CSc1ccc(CN2CCN(c3cnn4c(C5CC5)nnc4c3)CC2)cc1 | 603 s |
| CC(CCc1ccccc1)NC(=O)C(=O)NC1CCCC1 (stereo unspecified) | 925 s |
| Cc1sc(NC(=O)CSc2nnc3c4ccccc4n(C)c3n2)nc1-c1ccccc1 | 1030 s |
| CC(C)NC(=O)CSc1nccnc1N1CCN(c2ccccc2)CC1 | 867 s |

The remaining lines, values ahead:

| RP-LC retention time | Structure (SMILES) |
| --- | --- |
| 640 s | O=C(Cn1ncc2c(N3CCN(c4ccccn4)CC3)ncnc21)Nc1ccc(Cl)cc1F |
| 719 s | COCCN(Cc1ccc(C(C)C)cc1)Cc1cc(=O)n2cc(C)ccc2n1 |
| 570 s | CCc1ccc(-c2cn3cc(C(=O)N4CCCN(C)CC4)ccc3n2)cc1 |
| 872 s | COc1cccc(CCN2CC(=O)N(c3ccc(C)c(C)c3)[C@@H]3CS(=O)(=O)C[C@@H]32)c1 |
| 639 s | CCN1C(=O)c2ccccc2Oc2ccc(C(=O)NCCC3=CCCCC3)cc21 |
| 776 s | COc1ccc(C2(C(=O)NCC34CCCC=C3NC(=O)CC4)CC2)cc1 (stereo unspecified) |
| 908 s | O=C(Cn1ccn2nc(-c3ccc(F)cc3)c(CO)c2c1=O)Nc1ccc2c(c1)CCC2 |
| 610 s | CCN1CCN(c2cc(C(=O)O)c3cc(NC(=O)c4ccc(Br)cc4)ccc3n2)CC1 |
| 1410 s | O=S(=O)(c1ccc2c(c1)CCCC2)N1CCCC1c1nc(-c2cccc(Cl)c2)no1 (stereo unspecified) |
| 952 s | Cc1ccc(CNC(=O)c2nnc(-c3ccc(S(=O)(=O)N4CCCCC4)cc3)o2)o1 |
| 896 s | COc1ccc(NS(=O)(=O)c2cn(CC(C)C)c3ncccc23)cc1F |
| 771 s | CCN1c2ccccc2C(=O)NC12CCN(C(=O)c1cc(OC)cc(OC)c1)CC2 |
| 882 s | CC(CCc1ccccc1)NC(=O)C1CCN(S(=O)(=O)c2ccc3c(ccn3C)c2)CC1 (stereo unspecified) |
| 1030 s | Cc1c(-c2ccnc(N3CCOCC3)n2)cnc2nc(-c3ccc(Cl)cc3)nn12 |
| 861 s | Cc1ccc(NS(=O)(=O)c2cn(C(C)C)c3ncccc23)cc1F |
| 590 s | Cc1ccc2c(Nc3ccc(S(N)(=O)=O)cc3)c(C(=O)N3CCCCC3C)cnc2n1 (stereo unspecified) |

| RP-LC retention time | Structure (SMILES) |
| --- | --- |
| 695 s | O=C(NCc1ccccc1C(F)(F)F)C1CCN(c2cncnc2N2CCCC2)CC1 |
| 1050 s | Cn1ccc2cc(CCC(=O)N3CCN(c4ccc(Cl)cc4)CC3)ccc21 |
| 579 s | COc1ccc(C(CC(=O)NCCN2CCN(C)CC2)N2Cc3ccccc3C2=O)cc1OC (stereo unspecified) |
| 660 s | Cc1n[nH]c(C)c1S(=O)(=O)N1CCC(c2nnc(-c3ccco3)s2)CC1 |
| 951 s | O=C(NCCCc1ccccc1)C1CCCN(c2nc3ccsc3c(=O)n2-c2ccc(F)cc2)C1 (stereo unspecified) |
| 684 s | O=C(c1cccc(C(F)(F)F)c1)N1CCN(c2nc(CN3CCCCC3)cs2)CC1 |
| 1130 s | COc1ccc(-c2noc(C3CCCN3C(=O)Nc3cc(Cl)ccc3OC)n2)cc1 (stereo unspecified) |
| 1110 s | COc1ccc(-c2ncc3c(n2)CCN(S(=O)(=O)c2cccc(C(F)(F)F)c2)C3)cc1 |
| 656 s | COc1ccc(-c2csc(Nc3cccnc3)n2)cc1 |
| 715 s | CCc1ccc(S(=O)(=O)N2CCC(n3cnnc3C)CC2)cc1 |
| 1080 s | O=S(=O)(Cc1ccccc1)N1CCC(Cc2nncn2-c2ccccc2)CC1 |
| 913 s | NS(=O)(=O)c1cccnc1Nc1ccc(Br)cc1 |
| 874 s | Cc1noc(C)c1-c1ccc(S(=O)(=O)Nc2ccc(C#N)cc2)cc1 |
| 978 s | CCn1cc2c3c(cccc31)CN(C(=O)Nc1ccc(C)cc1)CC2 |
| 1120 s | CCCN1CCN(c2ncc3c(n2)CCN(Cc2cccc(OC)c2)C3)CC1 |
| 712 s | COc1ccc(NC(=O)Nc2c(-c3ccc(C)cc3)nc3ccccn23)cc1Cl |
